Measured values published in article PMC12799587, “Predicting compounds that interact with the 2 known agonist-induced conformations of the human β1-adrenoceptor” (Molecular Pharmacology, 2025).

What was measured:
[1] = target: T1, β1-AR (Homo sapiens, UniProt P08588); experiment: CRE-luciferase production in CHO-β1-CRE-luciferase cells; conditions: for % isop: response compared to 10 μM isoprenaline; for Log ratio of affinities: catecholamine vs secondary conformation; for Log KD Secondary Conformation, CGP12177 as agonist: rightward shift of CGP12177 response; for Log KD Secondary Conformation, CGP12177 as agonist / Log KD Catecholamine conformation Cimaterol as Agonist: Gaddum, or Stephenson for partial agonists (a); for Log EC50: agonist action; for Log KD Catecholamine conformation Cimaterol as Agonist: rightward shift of cimaterol response
T1 sequence (P08588 whole entry): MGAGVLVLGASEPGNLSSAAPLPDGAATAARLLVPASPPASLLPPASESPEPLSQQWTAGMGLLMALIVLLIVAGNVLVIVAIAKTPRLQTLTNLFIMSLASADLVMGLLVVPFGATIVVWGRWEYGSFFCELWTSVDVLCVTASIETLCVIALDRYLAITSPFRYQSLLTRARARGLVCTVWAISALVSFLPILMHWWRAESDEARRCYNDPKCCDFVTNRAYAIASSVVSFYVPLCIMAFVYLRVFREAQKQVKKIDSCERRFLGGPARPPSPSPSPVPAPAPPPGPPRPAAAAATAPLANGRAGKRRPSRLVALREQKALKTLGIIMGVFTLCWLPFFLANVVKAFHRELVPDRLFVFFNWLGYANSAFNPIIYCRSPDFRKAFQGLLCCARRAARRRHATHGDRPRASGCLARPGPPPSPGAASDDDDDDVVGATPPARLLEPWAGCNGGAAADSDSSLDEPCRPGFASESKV

[2] = target: T1, β1-AR; experiment: Summary of pharmacological outcome at the β1-AR (CHO-β1-luciferase or CHO-β1-SPAP cells); conditions: for Pharmacological Outcome: CCE/IBS conformation / Pharmacological Outcome: SCE conformation: β1-AR, summary; for Evidence of SCE activation: evidence A–D as outlined in the Introduction, CHO-β1-luciferase or CHO-β1-SPAP cells
[3] = target: T2, human β2-AR (Homo sapiens, UniProt P07550); experiment: 3H-CGP12177 whole-cell binding in CHO-β2-CRE-SPAP cells; conditions: for β2-Selectivity: β2 over β1 affinity from whole-cell binding
T2 sequence (P07550 whole entry): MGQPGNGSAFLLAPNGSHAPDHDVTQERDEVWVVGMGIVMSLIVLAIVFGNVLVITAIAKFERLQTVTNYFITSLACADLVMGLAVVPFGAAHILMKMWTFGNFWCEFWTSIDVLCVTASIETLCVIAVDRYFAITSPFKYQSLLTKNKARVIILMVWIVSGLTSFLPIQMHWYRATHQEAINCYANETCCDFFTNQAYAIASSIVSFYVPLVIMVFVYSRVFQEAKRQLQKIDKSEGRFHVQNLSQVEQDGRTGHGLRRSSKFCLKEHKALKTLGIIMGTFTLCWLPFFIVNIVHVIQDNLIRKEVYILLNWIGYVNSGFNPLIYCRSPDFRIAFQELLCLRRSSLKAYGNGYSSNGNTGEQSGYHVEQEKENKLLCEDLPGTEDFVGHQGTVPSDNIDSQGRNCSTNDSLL

[4] = target: T2, human β2-AR; experiment: CRE-SPAP production in CHO-β2-CRE-SPAP cells; format: cell-based; set-up: expressed in transfected cells; host or cells: CHO-K1 clonal line (CHO-β2-CRE-SPAP); conditions: for EC50 / Log EC50: agonist action; for % Isoprenaline: response compared with 10 μM isoprenaline
Method: (§1) Many agonist responses were best described by a one-site sigmoidal agonist concentration-response curve.
(§2) In experiments where 3 different fixed concentrations of the same antagonist were used, Schild plots were constructed using equation (6):(6) logDR-1=logB-logKD
(§3) These points were then fitted to a straight line. A slope of 1 then indicates competitive antagonism.[39]
(§4) Where clear partial agonism was present (eg, Fig. 3D), the partial agonist affinity was calculated by the method of Stephenson[40] using equation 7.
(§5) (7) KDpartialagonist=Y×P/1-YwhereY=A2-A1/A3 where [P] is the concentration of the partial agonist, [A1] is the concentration of the agonist at the point where the fixed partial agonist causes the same response, [A2] is the concentration of agonist causing a given response above that achieved by the partial agonist, and [A3] is the concentration of the agonist, in the presence of the partial agonist, causing the same stimulation as [A2].

[5] = target: T1, β1-AR; experiment: 3H-CGP12177 whole-cell binding in CHO-β1-CRE-SPAP cells
[6] = target: T1, β1-AR; experiment: CRE-SPAP production in CHO-β1-CRE-SPAP cells; format: cell-based; set-up: expressed in transfected cells; host or cells: CHO-K1 clonal lines (CHO-β1-CRE-luc, CHO-β1-CRE-SPAP); conditions: CHO-β1-CRE-SPAP cells; for EC50 / Log EC50: agonist action; for EC50: read-out: Log EC50 (converted); for % Isoprenaline: response compared with 10 μM isoprenaline
Method: as §1, §2, §3, §4, §5
where N is the percentage of site 1, [A] is the concentration of agonist, and EC1_50 and EC2_50 are the respective EC50 values for the 2 agonist sites.

[7] = Log EC50, agonist action, CHO-β1-CRE-luciferase cells, given as log EC50 (negative)
[8] = Log KD (CGP12177 as Agonist), rightward shift of CGP12177 response
[9] = Log KD (Cimaterol as Agonist), rightward shift of cimaterol response, Gaddum, or Stephenson (a)
[10] = CHO-β1-CRE-luciferase cells, given as log EC50 (negative)
[11] = rightward shift of CGP12177 response
[12] = rightward shift of cimaterol response, Gaddum, or Stephenson (a)

| % isop ([1]; CHO-β1-CRE-luciferase cells) | Pharmacological Outcome: CCE/IBS conformation [2] | Pharmacological Outcome: SCE conformation [2] | Kd [3] | Log KD Secondary Conformation, CGP12177 as agonist ([1]; CHO-β1-CRE-luciferase cells) | Kd [4, 9] | % Isoprenaline [4] | Kd [5] | % Isoprenaline [6] | Evidence of SCE activation [2] | Log EC50 [1, 10] | Log EC50 [4] | Log KD (CGP12177 as Agonist) [4, 11] | Log EC50 [6] | Log KD Secondary Conformation, CGP12177 as agonist [6, 11] | Log KD Catecholamine conformation Cimaterol as Agonist [6, 12] | Compound | other results |
| --- | --- | --- | --- | --- | --- | --- | --- | --- | --- | --- | --- | --- | --- | --- | --- | --- | --- |
| 2.7 ± 0.8% | Agonist |  | 977 nM | No shift 10 μM | 457 nM | 15.2 ± 1.2% | 1120 nM | 53.6 ± 3.1% | None |  |  |  |  |  |  | COc1ccc(OCC(O)CNCCc2c[nH]c3ccccc23)cc1 (stereo not shown) [VL06, 1-[2-(1H -indol-3-yl)ethylamino]-3-(4-methoxyphenoxy)propan-2-ol] | β2-Selectivity [3]: 1.1 fold; Kd [1]: 347 nM; EC50 [1, 7]: 1410 nM; Log ratio of affinities ([1]; CHO-β1-CRE-luciferase cells): >1.46; Kd [4, 8]: 1170 nM; EC50 [4]: 363 nM; Log ratio of affinities ([4]; cimaterol vs CGP12177 as agonist): 0.41; EC50 [6]: 339 nM |
|  | No receptor interaction | No receptor interaction | 6760 nM | No shift 10 μM | 3720 nM |  |  |  | None | No response | No response | No shift 10 μM | No response | No shift 10 μM | No shift 10 μM | C=CCc1ccccc1OCCNCCCOC [VL12, 3-methoxy-N -[2-(2-prop-2-enylphenoxy)ethyl]propan-1-amine] | Log KD Catecholamine conformation Cimaterol as Agonist ([1]; CHO-β1-CRE-luciferase cells): No shift at 10 μM |
| 9.7 ± 0.8% | Agonist |  | 12.3 nM | No shift 10 μM |  | 63.2 ± 3.2% | 24 nM | 62.3 ± 3.8% | None |  |  |  |  |  |  | COc1ccccc1OC[C@@H](O)CNC(C)C [VL05, (2S)-1-(2-methoxyphenoxy)-3-(propan-2-ylamino)propan-2-ol] | β2-Selectivity [3]: 1.9 fold; Kd [1]: 10 nM; EC50 [1, 7]: 64.6 nM; Log ratio of affinities ([1]; CHO-β1-CRE-luciferase cells): >3; EC50 [4]: 3.8 nM; EC50 [6]: 5.01 nM |
| 23.7 ± 1.7% | Agonist (biphasic) | Agonist (biphasic) | 0.0513 nM |  |  | 70.3 ± 2.0% | 0.575 nM | 84.5 ± 2.4% |  |  |  |  |  |  |  | CC(C)(Cc1c[nH]c2ccccc12)NCC(O)COc1ccccc1C#N (stereo not shown) [Bucindolol, 2-[2-hydroxy-3-[[2-(1H -indol-3-yl)-1,1-dimethyl-ethyl]amino]propoxy]benzonitrile, reference compound] | β2-Selectivity [3]: 11.2 fold; % at EC501 ([1]; % of the response occurring via first component, CHO-β1-CRE-luciferase cells): 23.3 ± 2.4%; EC50 ([1]; EC501 (log EC50 of first component), biphasic concentration response, CHO-β1-CRE-luciferase cells): 0.537 nM; EC50 ([1]; EC502 (log EC50 of second component), biphasic concentration response, CHO-β1-CRE-luciferase cells): 57.5 nM; EC50 [4]: 0.2 nM; EC50 [6]: 0.759 nM |
|  | High-affinity neutral antagonist | Low-affinity neutral antagonist |  |  | 0.0468 nM |  | 5.13 nM |  | None | No response | No response |  | No response |  |  | CC(C)(C)NC[C@H](O)COc1cccc2c1CCCC2=O [VL03, 5-[(2S)-3-(tert-butylamino)-2-hydroxypropoxy]-3,4-dihydro-2H -naphthalen-1-one] | Schild slope ([4]; CGP12177 as agonist): 1.00 ± 0.03; Kd [4, 8]: 0.0759 nM; Schild slope ([4]; cimaterol as agonist): 0.99 ± 0.04; Kd ([6]; Log KD Catecholamine conformation Cimaterol as Agonist, rightward shift of cimaterol response, Gaddum, or Stephenson (a)): 1.78 nM; Kd ([6]; Log KD Secondary Conformation CGP12177 as Agonist, rightward shift of CGP12177 response): 562 nM; Schild slope ([6]; cimaterol as agonist): 0.96 ± 0.05 |
|  |  |  |  |  |  | 55.1 ± 2.7% |  |  |  |  |  |  |  |  |  | CC(C)(C)NC[C@@H](O)COc1cccc2c1CCC(=O)N2 [VL04, 5-[(2R)-3-(tert-butylamino)-2-hydroxypropoxy]-3,4-dihydro-1H -quinolin-2-one] |  |
|  | No receptor interaction | No receptor interaction | 3240 nM | No shift 10 μM | 2090 nM |  |  |  | None | No response | No response | No shift 10 μM | No response | No shift 10 μM | No shift 10 μM | Cc1cc(C)c(OC[C@@H](O)CNC(C)C)c(C)c1 [VL08, (2S)-1-(propan-2-ylamino)-3-(2,4,6-trimethylphenoxy)propan-2-ol] |  |
|  | No receptor interaction | No receptor interaction |  | No shift 10 μM |  |  |  |  | None | No response | No response | No shift 10 μM | No response | No shift 10 μM | No shift 10 μM | Cc1ccc(OCC(O)CNC(C)C)cc1 (stereo not shown) [VL13, 1-(4-methylphenoxy)-3-(propan-2-ylamino)propan-2-ol] | Log KD β2 ([3]; competition with 3H-CGP12177, CHO-β2-CRE-SPAP cells, mean ± s.e.mean, given as log KD (negative)): No binding to 100 μM; Log KD Catecholamine conformation Cimaterol as Agonist ([1]; CHO-β1-CRE-luciferase cells): No shift at 10 μM; Log KD (Cimaterol as Agonist) [4, 12]: No shift 10 μM; Log KD β1 ([5]; competition with 3H-CGP12177, CHO-β1-CRE-SPAP cells, mean ± s.e.mean, given as log KD (negative)): No binding to 100 μM |
|  | Agonist (biphasic) | Agonist (biphasic) |  |  |  | 40.1 ± 2.3% |  |  |  |  |  |  |  |  |  | C=CCOc1ccccc1OCC(O)CNC(C)C (racemic) [Oxprenolol, (RS)-1-[2-(allyloxy)phenoxy]-3-(isopropylamino)propan-2-ol, reference compound] |  |
| 3.2 ± 0.8% | Agonist (biphasic) | Agonist (biphasic) |  |  |  |  |  | 56.7 ± 3.7% |  |  |  |  |  |  |  | C=CCc1ccccc1OCC(O)CNC(C)C (racemic) [Alprenolol, (RS)-1-(2-allylphenoxy)-3-(isopropylamino)propan-2-ol, reference compound] | % at EC501 ([6]; % of the response occurring via first component): 62.5 ± 2.7% |
|  | No receptor interaction | No receptor interaction | 8910 nM | No shift 10 μM |  |  |  |  | None | No response | No response | No shift 10 μM | No response | No shift 10 μM | No shift 10 μM | OCCOc1ccc(CNCCc2c[nH]c3ccccc23)cc1 [VL11, 2-[4-[[2-(1H -indol-3-yl)ethylamino]methyl]phenoxy]ethanol] | Log KD (Cimaterol as Agonist) [4, 12]: No shift 10 μM |

| Compound | % isop ([1]; CHO-β1-CRE-luciferase cells) | Pharmacological Outcome: CCE/IBS conformation [2] | Pharmacological Outcome: SCE conformation [2] | Kd [3] | Log KD Secondary Conformation, CGP12177 as agonist ([1]; CHO-β1-CRE-luciferase cells) | Kd [4, 9] | % Isoprenaline [4] | Kd [5] | % Isoprenaline [6] | Evidence of SCE activation [2] | Log EC50 [1, 10] | Log EC50 [4] | Log KD (CGP12177 as Agonist) [4, 11] | Log EC50 [6] | Log KD Secondary Conformation, CGP12177 as agonist [6, 11] | Log KD Catecholamine conformation Cimaterol as Agonist [6, 12] | other results |
| --- | --- | --- | --- | --- | --- | --- | --- | --- | --- | --- | --- | --- | --- | --- | --- | --- | --- |
| CC(C)NCC(O)COc1cccc2[nH]ccc12 (racemic) [Pindolol, (RS)-1-[(1H -indol-4-yl)oxy]-3-(isopropylamino)propan-2-ol, reference compound] | 11.7 ± 1.4% | Agonist (biphasic) | Agonist (biphasic) |  |  |  |  |  |  |  |  |  |  |  |  |  |  |
